Entries after “also recorded” stand apart in the source; their conditions may differ. Like-named read-outs stand apart in the source and are kept apart here. Where no end group is shown, it is not given here.
Experiments:
[1] = test system: human islets; test: Glucose-stimulated insulin secretion (GSIS) assay, human islets; assay type: cell-based; settings: for GSIS response / insulin secretion compared to C-95 peptide: human islets, 1 μM peptide overnight, 28 mM glucose
Procedure: (§1) Human islet cells were similarly incubated with a N-94 peptide or C-95 peptide for varying periods of time following which GSIS assay and viability measurements were conducted. Insulin was measured using Insulin ELISA kit (Mercodia, Uppsala, Sweden).
(§2) Human islet cells were incubated overnight with 1 μM N-94 peptide (SEQ ID NO: 1), N-94/C6 peptide (SEQ ID NO: 62), N104 peptide, Tearpep3 peptide (SEQ ID NO: 21), Tearpep3/C6 peptide (SEQ ID NO: 33), C-95 peptide, or no treatment followed by GSIS assays (se FIG. 2A for the structures of, and Table 2 for the sequences of, these exemplary peptides). C57BL/6 islet cells were pretreated with 4 μM N-94 N-94 peptide or C-95 peptide or saline for 24 hours followed by minimal islet mass transplantation into syngeneic diabetic recipients. Tail vein blood glucoses were measured daily.
(§3) 50 human islets were incubated with N-94 peptide or C-95 peptide for 1, 3, 4, 6 and 9 days following which GSIS assay and viability measurement were conducted. Insulin was measured using Insulin ELISA kit (Mercodia).
Human islets were incubated overnight with 1 μM N-94 peptide, N-94/C6 peptide, N104 peptide, Tearpep3 peptide, Tearpep3/C6 peptide, C-95 peptide, or no treatment and GSIS assay performed.

[2] = test system: human sensory neurons; test: Viability of iPSC-derived sensory neurons stressed with inflammatory cytokines (Alamar Blue); assay type: cell-based; settings: day 21 neurons, IFN-γ (1000 U/mL)+TNF-α (100 ng/mL), 1 mM peptide, 72 hours
Procedure: Whether the peptides of the presently disclosed subject matter could enhance viability of human sensory neurons stressed with inflammatory cytokines was tested. Sensory neurons were derived from Induced Pluripotent Stem Cells (iPSC). iPSCs were seeded into 12 well Matrigel-coated plates (1.25×10^5 cells/well). Neural differentiation was initiated when cells were confluent using KSR medium. 100 nM of LDN-193189 and […] of SB431542 were added to the culture from day 0 to 6, to inhibit SMAD signaling. On day 4, 25% of N2 medium was added to the culture, with 100% of N2 medium at day 10. Sensory neurons induction was initiated at day 2 (day 2-10), with the addition of […] CHIR 99021, […] SU5402, and […] DAPT. From day 10 to day 21 neuron maturation was promoted with 25 ng/mL of β-NGF, BDNF, and GDNF. Cells were fed every day.
Sensory neurons (day 21) were incubated with IFN-g (1000 U/mL)+TNF-α (100 ng/mL) with or without 1 mM of the N-94/C-6 peptide or the negative control C-95 peptide for 72 hours in a 96-well plate. Alamar Blue reagent (10%) was added in each well. Fluorescence was measured after 6 hours (excitation at 545 nm/emission at 590 nm).

[3] = test system: human islets; test: Viability of cultured human islets; assay type: cell-based
Procedure: as §1, §3
Human islets were treated with various peptides of the presently disclosed subject matter and viability was assessed at twenty days post-treatment.

[4] = test system: C57BL/6 islets; test: Glucose-stimulated insulin secretion (GSIS) assay, mouse islets; assay type: cell-based; settings: for insulin secreted in GSIS assay: 50 islets/well, high glucose (28 mM); for GSIS: mouse islet cells
Procedure: C57BL/6 islets were also incubated overnight with 4 μM N-94 peptide (SEQ ID NO: 1) or C-95 peptide or no additive following which Glucose-stimulated Insulin secretion (GSIS) assays were performed.
C57BL/6 islets were incubated overnight with 4 μM N-94 peptide or C-95 peptide or no additive. 50 islets/well were used to perform Glucose stimulated Insulin secretion (GSIS) assay. Islets that were untreated or treated with C-95 peptide or with N-94 peptide and stimulated with high glucose (28 mM) secreted 39.86±7.81, 54.9±18.14, and 91±22.16 ng/ml Insulin. N-94 peptide increased insulin secretion by 2-fold compared to untreated control. Viability of human islets incubated with N-94 peptide at Day 1, 3, 4, 6, and 9 was 95±4, 95±3, 94±4, 84±9, and 80±15% while with C-95 it was 94±4, 91±7, 88±8, 66±16, and 65±18%. With saline it was 94±4, 94±3, 88±8, 58±19, and ˜53. While GSIS results were similar to the mouse results, maximum insulin secretion activity with N-94 peptide was only observed on Day 1 and 3.

[5] = test system: C57BL/6 islets; assay type: cell-based, mouse; settings: for viability of islets: C57BL/6, mouse, 4 μM; for mouse islet viability (in words): isolated mouse pancreatic islets, 4 μM peptide, in vitro
Procedure: C57BL/6 islets (see FIG. 3) were cultured with 4 μM N-94 (N-94) peptide or control peptide C-95 for different time periods ranging from 1-15 days in DMEM at 37° C. Viability of islets was scored by propidium iodide-fluorescein diacetate staining. 35 C57BL/6 islets/per well were cultured with 4 μM of N-94 peptide analog N-94 or control C-95 peptide for 1, 2, 5, 7,10 or 15 days in DMEM at 37° C. Viability of islets was scored after staining with PI/FDA. Islets cultured with N-94 peptide retained 95±3, 89±15, 80±17.5 and 61±21% viability while islets cultured with C-95 peptide retained 95±3, 87±13, 40±28 and 20±19% viability at Day 1, 5, 10 and 15.

[6] = test system: C57BL/6 mice made diabetic by single streptozotocin injection; test: Minimal islet mass transplantation of peptide-pretreated islets into streptozotocin-diabetic mice, blood glucose; assay type: in vivo, mouse
Procedure: as §2
75 C57Bl/6 islets were transplanted into C57BL/6 recipients made diabetic by single STZ injection (220 mg/Kg). Islets were pretreated with 4 μM N-94 peptide or C-95 peptide or saline for 24 hours prior to transplantation into diabetic mice (n=2 mice/group). Tail vein blood glucoses were measured daily. Incubation of islets with N-94 peptide permanently returned transplanted mice to normoglycemia with glucoses below 200 mg/dL within 9 days posttransplant. With C-95 peptide treatment, the glucose at Day 12 posttransplant was <250 mg/dL. Mice transplanted with untreated islets remained diabetic.
FIG. 4 is a graph of blood glucose levels of pancreatic islets treated with the indicated peptides and transplanted into diabetic mice observed for 60 days. Shown is a graph of blood glucose levels after minimal transplantation of 75 N-94 peptide-treated, C-95 peptide-treated, or saline-treated C57Bl/6 islets under the kidney capsule of C57BL/6 mice made diabetic before transplantation by single streptozotocin injection (220 mg/kg; two mice per group). Pretreatment was for 24 hours. Tail vein blood was collected daily for glucose analyses. Each line represents the progressive blood glucose level of a single diabetic mouse. Six mice each received N-94 peptide treated islets (black), six others received C-95 peptide treated islets (blue), and four received saline treated islets (orange). N-94 peptide permanently returned transplanted mice to normoglycemia with glucose below 200 mg/dL within 9 days post-transplantation with treatment efficacy continuing after 40 days post-transplantation. With C-95 peptide treatment, the glucose at Day 12 post-transplant was <250 mg/dL. Average blood glucoses measured between Days 22 to 43 were 142.9±17.6 mg/dL for the N-94 group compared to 275±34.8 mg/dL for the C-95 peptide group.

[7] = C57BL/6 islets, 4 μM peptide overnight
[8] = 75 islets pretreated 24 hours with 4 μM peptide, STZ-diabetic C57BL/6 mice

Sequence | GSIS response / insulin secretion compared to C-95 peptide [1] | insulin secreted in GSIS assay [4, 7] [ng/mL] | GSIS ([4]; 4 μM peptide overnight) [ng/mL] | viability of islets ([5]; 1 days) [%] | viability of islets ([5]; 5 days) [%] | viability of islets ([5]; 10 days) [%] | viability of islets ([5]; 15 days) [%] | mouse islet viability (in words) [5] | average blood glucose between Days 22 to 43 [6, 8] [mg/dL] | viability of human islets ([3]; 1 days) [%] | viability of human islets ([3]; 3 days) [%] | viability of human islets ([3]; 4 days) [%] | viability of human islets ([3]; 6 days) [%] | viability of human islets ([3]; 9 days) [%] | further results
AQKLLKKFSLLKPWA [N-104] | ~3.5 fold |  |  |  |  |  |  |  |  |  |  |  |  |  | rank of activity in glucose-dependent insulin secretion assay ([1]; 100 human islets, 1 μM peptide, 24 hours): Most active
KQFIENGSEFAQKLLKKFS [N-94/C-6, fragment of lacritin] |  |  |  |  |  |  |  |  |  |  |  |  |  |  | viability of stressed human sensory neurons (in words) [2]: restored viability
GKNRRKNWHAQLFVL [Tearpep3/N-104] |  |  |  |  |  |  |  |  |  |  |  |  |  |  | viability of human islets twenty days after isolation (in words) ([3]; human islets, 4 μM peptide, versus 4 μM Tearpep3/C-6 and lacritin N-94): superior viability
KQFIENGSEFAQKLLKKFSLLKPWA [N-94] | near doubling; also recorded: nearly doubled | 91 ± 22.16 | 91 ± 22 | 95±3 | 89±15 | 80±17.5 | 61 | promotes mouse islet viability | 142.9 ± 17.6 | 95±4 | 95±3 | 94±4 | 84 | 80±15 | increase of GSIS / insulin secretion compared to untreated ([4]; C57BL/6 islets, 4 μM peptide overnight, high glucose): ~2 fold; glucose-dependent insulin secretion (in words) ([4]; isolated mouse pancreatic islets, 4 μM peptide, treatment 24 hours after islet isolation): promotes; time to normoglycemia (glucose below 200 mg/dL) posttransplant [6, 8]: ≤ 9 days; treatment efficacy continuing posttransplant [6, 8]: > 40 days; blood glucose on return to normoglycemia ([6]; 75 islets pretreated 24 hours with 4 μM peptide, transplanted into STZ-diabetic C57BL/6 mice, within 9 days posttransplant): below 200 mg/dL; effect of peptide-pretreated islet transplant on diabetes (in words) ([6]; pretreated islets transplanted into streptozotocin diabetic mice): rapidly restores normoglycemia; also recorded: reverse disease
EDASSDSTGADPAQEAGTSKPNEE [C-95, reference compound] |  | 54.9 ± 18.14 | 54.9 ± 18.1 | 95±3 | 87±13 | 40±28 | 20 | not | 275 ± 34.8 | 94±4 | 91±7 | 88±8 | 66 | 65±18 | blood glucose at Day 12 posttransplant [6, 8]: < 250 mg/dL

Source: patent publication US12233108B2, “Compositions and methods for promoting islet viability and enhancing insulin secretion” (University of Virginia Patent Foundation, priority 2019, dated 2025)
